The values below come from patent publication US8513422B2, “Piperidine derivative” (Astellas Pharma Inc., priority 2007, dated 2013).

One data set has as its target T1, human 17βHSD type 5 (Homo sapiens, UniProt P42330).
T1 construct: A full-length cDNA encoding human 17βHSD type 5 used in the pharmacological test of the present invention; made in house; host or cells: Escherichia coli BL21
T1 sequence (P42330 1-323): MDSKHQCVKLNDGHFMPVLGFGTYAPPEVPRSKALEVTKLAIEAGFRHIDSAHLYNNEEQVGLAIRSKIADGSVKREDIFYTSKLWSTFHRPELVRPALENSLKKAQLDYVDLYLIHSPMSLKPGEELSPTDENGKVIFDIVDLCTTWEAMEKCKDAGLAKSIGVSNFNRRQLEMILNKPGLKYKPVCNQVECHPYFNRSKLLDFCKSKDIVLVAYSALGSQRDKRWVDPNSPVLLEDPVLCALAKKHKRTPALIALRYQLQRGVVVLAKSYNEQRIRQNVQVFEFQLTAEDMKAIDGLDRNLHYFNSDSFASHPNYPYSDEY
Briefly: Measurement of enzyme activity of human 17βHSD type 5 (testosterone production from androstenedione, DELFIA). Format: biochemical. To be noted: purified enzyme 10 μg/mL, androstenedione 300 nM, NADPH 200 μM, pH 6.0, room temperature, 2 hours. From the text: A full-length cDNA encoding human 17βHSD type 5 used in the pharmacological test of the present invention was obtained by the PCR method using a cDNA derived from a human lung cancer-derived cell line, A549 cells as a template. […] Escherichia coli BL21 was transformed with a plasmid containing the cDNA and cultured on a large scale. The proteins were purified by using GSTrapFF column (manufactured by Amersham) and PreScissionProtease (manufactured by Amersham). The purification method was carried out in accordance with the instructions attached to the GSTrapFF column.
The measurement was performed in accordance with the attached instructions. The amount of reduction of testosterone production in the presence of the compound was obtained as a relative value with respect to the amount of testosterone in the absence of the enzyme set at 0% and the amount of testosterone produced in the absence of the compound set at 100%. Then, IC50 values were calculated by the Logistic regression method.

Data set [1] has as its target T2, LNCaP cells expressing human 17βHSD type 5 (Homo sapiens, UniProt P42330).
T2 sequence (P42330 1-323): T1 sequence (P42330 1-323)
As to the kind of experiment: Cell growth capability using LNCaP cells expressing human 17βHSD type 5 (CellTiter-Glo). The class given is cell-based. To be noted: androstenedione 10 nM, culturing for 7 days; read-out: LNCaP-17β5 IC50 (cell growth inhibitory activity). The method, then: LNCaP cells of the human prostate cancer-derived cell line were transformed with a plasmid containing the clone selected in section 1 above and then a cell line showing stable expression was obtained.
9000 cells/well of the transformed cells obtained in section 4 above were seeded in a 96-well plate and cultured overnight. Then, androstenedione, in conjunction with a test compound, was added thereto at a final concentration of 10 nM, followed by culturing for 7 days. After the culturing, number of the cells was counted using a CellTiter-Glo (registered trademark) Luminescent Cell Viability Assay (Promega). The CellTiter-Glo (registered trademark) Luminescent Cell Viability Assay is a reagent that measures the number of the cells by monitoring an intracellular ATP level from the luminescence intensity by luciferase. The experimental manipulation was carried out in accordance with the attached instructions. The cell growth inhibitory activity in the presence of a test compound was calculated as a relative value with respect to the number of the cells in the absence of androstenedione set at proliferation of 0%, and the number of the cells in the presence of androstenedione and in the absence of the test compound set at proliferation of 100%. Then, IC50 values were calculated by the Logistic regression method.
A general note: Cellular ATP, detected with luciferase, serves as a proxy for viable cell number.

In a further data set the target is T3, human 17βHSD type 3 (Homo sapiens, UniProt P37058).
T3 construct: A full-length cDNA encoding human 17βHSD type 3 used in the pharmacological test of the present invention; expressed in transfected cells; host or cells: 293 cells (human fetus kidney-derived); supernatant of disrupted cells
T3 sequence (P37058 1-310): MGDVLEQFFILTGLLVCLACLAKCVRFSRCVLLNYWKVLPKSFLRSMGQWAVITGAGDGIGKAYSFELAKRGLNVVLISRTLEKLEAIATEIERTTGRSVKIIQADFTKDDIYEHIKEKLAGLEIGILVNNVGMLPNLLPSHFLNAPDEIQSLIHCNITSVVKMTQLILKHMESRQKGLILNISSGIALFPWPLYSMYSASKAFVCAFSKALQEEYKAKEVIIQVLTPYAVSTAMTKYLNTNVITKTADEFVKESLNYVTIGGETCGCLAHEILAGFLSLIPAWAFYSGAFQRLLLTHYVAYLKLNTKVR
As to the kind of experiment: Measurement of enzyme activity of human 17βHSD type 3. The class given is biochemical. Particulars: supernatant of transformed 293 cells as enzyme source. The method, then:
A full-length cDNA encoding human 17βHSD type 3 used in the pharmacological test of the present invention was obtained by the PCR method using a cDNA derived from human testis as a template. The nucleotide sequence of the obtained cDNA was analyzed by the dideoxyterminator method, and the clone matched with the known human 17βHSD type 3 sequence (GenBank accession No. BC034281) was selected. Subsequently, human fetus kidney-derived cell line, 293 cells, were transformed with a plasmid containing the cDNA, and the cells were collected 24 hours later. The collected cells were then disrupted in a phosphate buffer solution containing 5% glycerol (500 μL per 100 mm-dish of a phosphate buffer solution (pH 7.4, 200 mM) containing 5% glycerol) and centrifuged (16000 rpm, 5 min, 4° C.), and the supernatant was used as an enzyme source.
Enzyme activity was measured referring to Trevor M. Penning, et al., Biochem. J., 351, 67-77, (2000). Specifically, using a 100 mM potassium phosphate buffer (pH 6.0), (1) the enzyme purified in section 1 above at a final concentration of 10 μg/mL, (2) androstenedione at a final concentration of 300 nM, (3) NADPH at a final concentration of 200 μM, and (4) a test substance, were mixed to react at room temperature for 2 hours, and then the amount of testosterone produced was measured using DELFIA (registered trademark) Testosterone Reagents R050-201 (manufactured by PerkinElmer). The measurement was performed in accordance with the attached instructions. The amount of reduction of testosterone production in the presence of the compound was obtained as a relative value with respect to the amount of testosterone in the absence of the enzyme set at 0% and the amount of testosterone produced in the absence of the compound set at 100%. Then, IC50 values were calculated by the Logistic regression method.

Another data set deals with 5α-reductase. To be noted: patients with BPH, after administration; cited from earlier work.

Molecules are shown by their SMILES.

As to `Cc1ccc2[nH]c(C(=O)N3CCC(CC(C)(C)O)CC3)c(C)c2c1` [Example 17, 1-{1-[(3,5-dimethyl-1H-indol-2-yl)carbonyl]piperidin-4-yl}-2-methylpropan-2-ol], the melting point was in the range of 166 to 168 °C. Half-maximal inhibition against human 17βHSD type 5 (IC50) was put at 390 nM. Besides, the GI50 in data set [1] was 20 nM. Further, at human 17βHSD type 3, the 50% inhibitory concentration (IC50) is more than 10000 nM.
On to `CC(C)(O)CC1CCN(C(=O)c2cc3cc(O)ccc3[nH]2)CC1` [Example 15, 2-{[4-(2-hydroxy-2-methylpropyl)piperidin-1-yl]carbonyl}-1H-indol-5-ol], for which the melting point lay in the range of 212 to 219 °C. Besides, the IC50 against human 17βHSD type 5 came to 15 nM. Moreover, the GI50 in data set [1] worked out at 18 nM. Besides, the half-maximal inhibitory concentration (IC50) against human 17βHSD type 3 is more than 10000 nM.
In turn, `Cc1ccc2[nH]c(C(=O)N3CCC(CC(C)(C)O)CC3)cc2c1` [Example 24, 2-methyl-1-{1-[(5-methyl-1H-indol-2-yl)carbonyl]piperidin-4-yl}propan-2-ol] yielded a melting point of 149 to 150 °C. In addition, the half-inhibitory concentration (IC50) on human 17βHSD type 5 turned out to be 150 nM. The GI50 in data set [1] is 24 nM. At human 17βHSD type 3, the IC50 was more than 10000 nM.
As for `COc1ccc2[nH]c(C(=O)N3CCC(CC(C)(C)O)CC3)cc2c1` [Example 25, 1-{1-[(5-methoxy-1H-indol-2-yl)carbonyl]piperidin-4-yl}-2-methylpropan-2-ol], the GI50 in data set [1] came to 12 nM. This compound also registered an IC50 against human 17βHSD type 3 of more than 10000 nM.
Take `CC(C)(C)NC(=O)[C@H]1CC[C@H]2[C@@H]3CC[C@H]4NC(=O)C=C[C@]4(C)[C@H]3CC[C@]12C` [finasteride]: in the data set on 5α-reductase, the “concentration of DHT in the prostate relative to the concentration before the administration” value was “about 20%” and the “increase of concentration of testosterone in the prostate” value is reported as 4 fold.
Regarding `Cc1ccc2[nH]c(C(=O)N3CCC(CCO)CC3)cc2c1` [Example 22, 2-{1-[(5-methyl-1H-indol-2-yl)carbonyl]piperidin-4-yl}ethanol], the melting point was 163 to 165 °C. Moreover, inhibition against human 17βHSD type 5 was half-maximal at 21 nM (IC50). The GI50 in data set [1] was found to be 60 nM. On human 17βHSD type 3, the concentration for half-maximal inhibition (IC50) was more than 10000 nM.
Regarding `CC(C)(O)CC1CCN(C(=O)c2cc3ccccc3[nH]2)CC1` [Example 9, 1-[1-(1H-indol-2-ylcarbonyl)piperidin-4-yl]-2-methylpropan-2-ol], the melting point lay in the range of 153 to 163 °C. The IC50 at human 17βHSD type 5 turned out to be 130 nM. In addition, the GI50 in data set [1] was 10 nM. On human 17βHSD type 3, this compound had an IC50 of more than 10000 nM.
With `CC(C)(O)CC1CCN(C(=O)c2cc3cc([N+](=O)[O-])ccc3[nH]2)CC1` [Example 20, 2-methyl-1-{1-[(5-nitro-1H-indol-2-yl)carbonyl]piperidin-4-yl}propan-2-ol], the melting point is 223 to 225 °C. The 50% inhibitory concentration (IC50) on human 17βHSD type 5 worked out at 15 nM. In addition, the GI50 in data set [1] was found to be 29 nM. Further, at human 17βHSD type 3, the concentration for half-maximal inhibition (IC50) was more than 10000 nM.
Turning to `CC(C)(O)CC1CCN(C(=O)c2cc3cc(Cl)ccc3[nH]2)CC1` [Example 1, 1-{1-[(5-chloro-1H-indol-2-yl)carbonyl]piperidin-4-yl}-2-methylpropan-2-ol], the melting point was 178 to 180 °C. Also, half-maximal inhibition against human 17βHSD type 5 (IC50) required 4.5 nM. Besides, in data set [1], the GI50 turned out to be 8.9 nM. The IC50 at human 17βHSD type 3 is more than 10000 nM.
The compound `CC(O)CC1CCN(C(=O)c2cc3ccccc3[nH]2)CC1` (stereo not drawn) [Example 30, 1-[1-(1H-indol-2-ylcarbonyl)piperidin-4-yl]propan-2-ol] had a melting point of 163 to 167 °C. Further, 26 nM corresponded to half-maximal inhibition at human 17βHSD type 5 (IC50). Further, the GI50 in data set [1] came to 31 nM. Also, the IC50 against human 17βHSD type 3 was more than 10000 nM.

As a reminder, the IC50 is the concentration that inhibits the measured activity by half. A high value points to lower potency. By melting point is commonly meant the temperature of the solid-liquid transition.
